Counter-ions that a name gives are not always drawn.
How the values were obtained:
human plasma [1] = assay: Activated cephalin time (ACT) in human plasma, anti-coagulant activity; format: biochemical; details: human plasma deficient in platelets, 2 min incubation at 37° C., PTT Automate Cephalin
Experimental: (§1) Anti-coagulant Activity, Measurement of Thrombin Time and Activated […] Man In order to evaluate the anti-coagulant activity of the compounds of the invention, the thrombin time (TT) and the activated cephalin time (ACT) were determined in human plasma samples. An ST4 coagulometer (Diagnostica Stago, France) was used. A lyophilised plasma, deficient in platelets (Stago), is taken up in distilled water. The TT is obtained using the reagent Prest Thrombin and the ACT using the reagent PTT Automate […]. […] The activity of an antagonist is evaluated by its capacity to prolong the TT and the ACT relative to the control. The effect of the inhibitors is expressed by the concentration in μM that doubles the coagulation time (Ctt2).

dog plasma [2] = assay: Anti-coagulant activity after administration per os to the dog, thrombin time (TT); format: in vivo; details: oral
Experimental: (§2) Anti-coagulant Activity After Administration Per os to the Dog
(§3) Male or female dogs weighing 11-28 kg are treated by the oral route with the products of the invention (5 or 10 mg/kg). The coagulation times (TT, ACT) are determined in dog plasma samples 10 min. before and 30 min., 1 hour, 2 hours, 4 hours and 6 hours after administration of the products. The measurements of the coagulation times are carried out as described in Example 81.
(§4) Under the conditions of our experiments, the TT is of the order of 19 seconds and the ACT of the order of 18 seconds.
(§5) The Table 4 summarizes the results obtained.

dog plasma [3] = assay: Anti-coagulant activity after administration per os to the dog, activated cephalin time (ACT); format: in vivo; details: oral
Experimental: as §2, §3, §4, §5

human thrombin = target: T1, human thrombin (Homo sapiens, UniProt P00734); assay: Inhibition of human thrombin (fibrin formation from purified human fibrinogen); format: biochemical; details: human thrombin 0.7 nM, human fibrinogen 4 mM, pH 7.4, 20° C., 10 min preincubation
T1 construct: purchased Sigma
Experimental: Inhibition of Thrombin and of Fibrinolysis Serine Proteases […] The fibrin formed by the thrombin or by the paranitroanilide released by the action of the serine protease is measured spectrophotometrically at 405 nm after from 15 to 30 minutes' reaction at 20° C.

human plasma [4] = assay: Thrombin time (TT) in human plasma, anti-coagulant activity; format: biochemical; details: human plasma deficient in platelets, 2 min incubation at 37° C., Prest Thrombin
Experimental: as §1

Row | SMILES | IC50 (human thrombin) | ACT Ctt2 (concentration that doubles the coagulation time) (human plasma [1]) | TT increase (maximal; number of times by which the initial time is increased) (dog plasma [2]; 5 mg/kg) | ACT increase (maximal; number of times by which the initial time is increased) (dog plasma [3]; 5 mg/kg) | TT Ctt2 (concentration that doubles the coagulation time) (human plasma [4]) | TT increase (maximal; number of times by which the initial time is increased) (dog plasma [2]; 10 mg/kg) | ACT increase (maximal; number of times by which the initial time is increased) (dog plasma [3]; 10 mg/kg)
1 | Cl.Cl.N=C(N)c1ccc(CNC(=O)[C@]23C[C@H]2CCCN3C(=O)[C@H](N)C(c2ccccc2)c2ccccc2)cc1 [Example 61, 1-[(2R)-3,3-Diphenylalanyl]-N-(4-amidinobenzyl)-(2S,3R)-2,3-methano-homoprolinamide dihydrochloride] | 1 nM | 0.47 µM | 14.2 times | 2.0 times | 0.05 µM | – | –
2 | N=C(N)c1ccc(CNC(=O)[C@]23C[C@H]2CCN3C(=O)[C@H](NS(=O)(=O)Cc2ccccc2)C2CCCCC2)cc1 [Example 16, 1-[N-Benzylsulphonyl-(2R)-cyclohexylglycyl]-N-(4-amidinobenzyl)-(2S,3R)-2,3-methano-prolinamide hydrochloride] | 1 nM | 0.42 µM | – | – | 0.09 µM | – | –
3 | Cl.Cl.N=C(N)c1ccc(CNC(=O)[C@]23C[C@H]2CCN3C(=O)[C@H](N)C(c2ccccc2)c2ccccc2)cc1 [Example 11, 1-[(2R)-3,3-Diphenylalanyl]-N-(4-amidinobenzyl)-(2S,3R)-2,3-methano-prolinamide dihydrochloride] | 4 nM | 0.59 µM | 5.6 times | 2.3 times | 0.06 µM | – | –
4 | CN[C@H](CC1CCCCC1)C(=O)N1CCC[C@@H]2C[C@@]21C(=O)NCc1ccc(N)nc1C.Cl.Cl [Example 29, 1-[N-Methyl-(2R)-3-cyclohexylalanyl]-N-[(6-amino-2-methyl-3-pyridyl)methyl]-(2S,3R)-2,3-methano-homoprolinamide dihydrochloride] | 44 nM | 2.80 µM | – | – | 0.46 µM | 6.2 times | 1.7 times
5 | Cc1nc(N)ccc1CNC(=O)[C@]12C[C@H]1CCCN2C(=O)[C@H](N)C(C1CCCCC1)C1CCCCC1 [Example 63, 1-[(2R)-3,3-Dicyclohexylalanyl]-N-[(6-amino-2-methyl-3-pyridyl)methyl]-(2S,3R)-2,3-methano-homoprolinamide dihydrochloride] | 8.8 nM | – | – | – | – | – | –
6 | Cl.N=C(N)c1ccc(CNC(=O)[C@]23C[C@H]2CCN3C(=O)[C@@H](Cc2ccccc2)NS(=O)(=O)Cc2ccccc2)cc1 [Example 9, 1-[N-Benzylsulphonyl-(2R)-3-phenylalanyl]-N-(4-amidinobenzyl)-(2S,3R)-2,3-methano-prolinamide hydrochloride] | 6 nM | 0.86 µM | – | – | 0.20 µM | – | –
7 | Cc1nc(N)ccc1CNC(=O)[C@]12C[C@H]1CCCN2C(=O)[C@H](N)CC1CCCCC1.Cl.Cl [Example 28, 1-[(2R)-3-Cyclohexylalanyl]-N-[(6-amino-2-methyl-3-pyridyl)methyl]-(2S,3R)-2,3-methano-homoprolinamide dihydrochloride] | 26 nM | 2.30 µM | – | – | 0.31 µM | 6.2 times | 1.8 times
8 | CCCCN[C@H](CC1CCCCC1)C(=O)N1CCC[C@@H]2C[C@@]21C(=O)NCc1ccc(N)nc1C.Cl.Cl [Example 31, 1-[N-Butyl-(2R)-3-cyclohexylalanyl]-N-[(6-amino-2-methyl-3-pyridyl)methyl]-(2S,3R)-2,3-methano-homoprolinamide dihydrochloride] | 5.1 nM | 1.30 µM | – | – | 0.17 µM | – | –

The next lines start with results.

Row | IC50 (human thrombin) | SMILES | ACT Ctt2 (concentration that doubles the coagulation time) (human plasma [1]) | TT increase (maximal; number of times by which the initial time is increased) (dog plasma [2]; 5 mg/kg) | ACT increase (maximal; number of times by which the initial time is increased) (dog plasma [3]; 5 mg/kg) | TT Ctt2 (concentration that doubles the coagulation time) (human plasma [4]) | TT increase (maximal; number of times by which the initial time is increased) (dog plasma [2]; 10 mg/kg) | ACT increase (maximal; number of times by which the initial time is increased) (dog plasma [3]; 10 mg/kg)
9 | 28 nM | N=C(N)c1ccc(CNC(=O)[C@]23C[C@H]2CCN3C(=O)[C@H](NCC(=O)O)C2CCCCC2)cc1 [Example 17, 1-[N-Carboxymethyl-(2R)-cyclohexylglycyl]-N-(4-amidinobenzyl)-(2S,3R)-2,3-methano-prolinamide hydrochloride] | 0.86 µM | 16.0 times | 3.7 times | 0.11 µM | – | –
10 | 2 nM | CCOC(=O)CN[C@H](CC1CCCCC1)C(=O)N1CCC[C@@H]2C[C@@]21C(=O)NCc1ccc(C(=N)N)cc1.Cl.Cl [Example 25, 1-[N-Ethoxycarbonylmethyl-(2R)-3-cyclohexylalanyl]-N-(4-amidinobenzyl)-(2S,3R)-2,3-methano-homoprolinamide dihydrochloride] | 0.45 µM | – | – | 0.08 µM | – | –
11 | 7.1 nM | Cc1nc(N)ccc1CNC(=O)[C@]12C[C@H]1CCCN2C(=O)[C@@H](CC1CCCCC1)NCC(=O)O.Cl.Cl [Example 32, 1-[N-Carboxymethyl-(2R)-3-cyclohexylalanyl]-N-[(6-amino-2-methyl-3-pyridyl)methyl]-(2S,3R)-2,3-methano-homoprolinamide dihydrochloride] | 1.09 µM | – | – | 0.12 µM | – | –
12 | 7.9 nM | Cl.Cl.N=C(N)c1ccc(CNC(=O)[C@]23C[C@H]2CCN3C(=O)[C@H](N)CC2CCCCC2)cc1 [Example 2, 1-[(2R)-3-Cyclohexylalanyl]-N-(4-amidinobenzyl)-(2S,3R)-2,3-methano-prolinamide dihydrochloride] | 0.52 µM | 3.8 times | 1.4 times | 0.07 µM | – | –
13 | 1.2 nM | Cl.Cl.N=C(N)c1ccc(CNC(=O)[C@]23C[C@H]2CCN3C(=O)[C@H](N)C(C2CCCCC2)C2CCCCC2)cc1 [Example 13, 1-[(2R)-3,3-Dicyclohexylalanyl]-N-(4-amidinobenzyl)-(2S,3R)-2,3-methano-prolinamide dihydrochloride] | 2.30 µM | – | – | 0.18 µM | – | –
14 | 5.3 nM | Cl.N=C(N)c1ccc(CNC(=O)[C@]23C[C@H]2CCN3C(=O)[C@@H](CC2CCCCC2)NCC(=O)O)cc1 [Example 3, 1-[N-Carboxymethyl-(2R)-3-cyclohexylalanyl]-N-(4-amidinobenzyl)-(2S,3R)-2,3-methano-prolinamide hydrochloride] | 0.56 µM | 8.4 times | 2.1 times | 0.06 µM | – | –
15 | 5.1 nM | CCOC(=O)CN[C@H](CC1CCCCC1)C(=O)N1CCC[C@@H]2C[C@@]21C(=O)NCc1ccc(N)nc1C.Cl.Cl [Example 33, 1-[N-Ethoxycarbonylmethyl-(2R)-3-cyclohexylalanyl]-N-[(6-amino-2-methyl-3-pyridyl)methyl]-(2S,3R)-2,3-methano-homoprolinamide dihydrochloride] | 1.10 µM | 7.1 times | 1.5 times | 0.11 µM | – | –
16 | 2.3 nM | Cl.N=C(N)c1ccc(CNC(=O)[C@]23C[C@H]2CCCN3C(=O)[C@@H](CC2CCCCC2)NCC(=O)O)cc1 [Example 24, 1-[N-Carboxymethyl-(2R)-3-cyclohexylalanyl]-N-(4-amidinobenzyl)-(2S,3R)-2,3-methano-homoprolinamide hydrochloride] | 0.58 µM | 6.7 times | 1.2 times | 0.03 µM | – | –
17 | 1 nM | Cl.N=C(N)c1ccc(CNC(=O)[C@]23C[C@H]2CCN3C(=O)[C@H](NCC(=O)O)C(C2CCCCC2)C2CCCCC2)cc1 [Example 14, 1-[N-Carboxymethyl-(2R)-3,3-dicyclohexylalanyl]-N-(4-amidinobenzyl)-(2S,3R)-2,3-methano-prolinamide hydrochloride] | 2.20 µM | – | – | 0.19 µM | – | –

From US6288077A, “2,3-methano-amino acid compounds” (Adir et Compagnie, priority 1999, dated 2001)
